Data taken from US5786332A, “Cytokine restraining agents and methods of use in pathologies and conditions associated with altered cytokine levels” (Trega Biosciences, Inc., priority 1995, dated 1998).

Key:
Assay type in all cases: in vivo
Sprague-Dawley rats [1] = experiment: Disuse deconditioning (tail suspension, 14 days); details: 1 or 5 μg/kg IP twice daily
Protocol: Adult male Sprague-Dawley rats (355-365 g) were used in this study. Animals were housed individually in standard rat cages and were acclimated on a treadmill for 4 days. The next day, a baseline tail bleed was performed, followed by a maximal treadmill stress test the day after. The day following the stress test, the animals were divided into the appropriate treatment and control groups and the animals were suspended by their tails in suspension cages, which simulates weightlessness and, therefore, deconditions the animals. Another group of control animals was placed in standard rat cages with grated flooring similar to that utilized in the suspension cages. All animals were housed one per cage and supplied with food and water ad libitum. Body weights and food consumptions were measured daily. Animals received twice daily IP injections of 1 μg/kg or 5 μg/kg body weight of EX-2 (treated), or 1 ml/kg body weight of saline (control). On day 10, all animals were stress tested on the treadmill until they reached exhaustion. Data on maximum VO2 and running time were collected and compared to pre-suspension results. On day 14, all animals were sacrificed, and blood, tissues, and organs were collected for further analysis. All procedures and tests were performed blind to avoid researcher subjectivity. Statistical significance (p<0.05) between groups was evaluated by ANOVA with Student-Newman-Keuls test for multiple comparisons. All data are reported as the mean ± standard error (SE).
All of the animals were subjected to the stress tests, which measured exercise time and maximal VO2. As well, levels of the oxidative enzyme soleus citrate synthase and tibia bone density were measured.
Soleus citrate synthase was attenuated by 50%.

Sprague-Dawley rats [2] = experiment: Nephrotoxic serum glomerulonephritis, albuminuria; details: EX-2 100 μg/kg per injection 3 times per day; 24 hr albumin excretion
Protocol: C. Glomerulonephritis: Male Sprague-Dawley rats (weight 194-248 g) were immunized by subcutaneous injection of 1 mg normal rabbit IgG (Sigma Chemical Co.) in Freund's complete adjuvant (Sigma Chemical Co.). EX-2 was administered 3 times per day (100 μg/kg per injection) throughout the duration of the experiment. Seven days later, the rats were injected with 1.5 ml of nephrotoxic serum iv via dorsal penile vein. Urine, plasma, and serum were collected before injection of nephrotoxic serum at 4, 6, 24, 48, and 96 hr thereafter. […] Albuminuria was quantified by immunoelectrophoresis.

Balb/c mice [3] = experiment: Arachidonic acid-induced ear swelling; details: 100 μg/mouse IP 30 min before AA; 60 min after AA
Protocol: Experiments were performed using female Balb/c mice weighing 18-23 grams. Saline or 100 μg EX-2 or EX-3 was administered IP, 30 min prior to topical application of arachidonic acid (AA). A 10 μl pipet was used to apply 10 μl AA solution (100 mg/ml ethanol; Calbiochem-Novabiochem; San Diego Calif.) to the inner and outer surfaces of the right ear of each mouse. Ten μl ethanol, alone, was applied to the inner and outer surface of the left ear of each mouse.
Ear thickness was measured with a hand-held spring loaded caliper immediately before and 60 min after AA application. Increase in ear thickness was calculated by subtracting the change observed in the control ear from the change observed in AA-treated ear. The value for each group (saline and control) is the average of the swelling observed in the individual mice in each group. The percent reduction of swelling is based on the swelling observed in the saline control group.

IL-6 = experiment: Reduction of LPS-induced Interleukin-6 levels in mice (ELISA); details: 300 μg/mouse; LPS-treated mice vs untreated control
Protocol: Balb/c mice were grouped and treated as described in Example III, above. Blood samples were obtained from the orbital sinus at various times up to six hr and serum was collected and diluted as described above. A 100 μl aliquot was assayed for IL-6 levels using an IL-6-specific ELISA by a modification of the method of Starnes et al., J. Immunol. 145:4185-4194 (1990), which is incorporated herein by reference.
The mean (+/-SEM) IL-6 level in six mice from each group was determined and the percent reduction in IL-6 was calculated.

Sprague-Dawley rats [4] = experiment: Renal ischemia-reperfusion injury; details: I/R + EX-2 (50 or 500 μg/kg iv, not specified)
Protocol: A. Ischemia-Reperfusion Injury: These experiments were performed to determine if a peptide which has cytokine restraining properties, EX-2, can ameliorate the reperfusion-induced vasoconstriction and reduction in glomerular filtration rate that results from clamping of the renal artery. As a comparison, the NSAID ketorolac was utilized in the same model.
Sprague-Dawley rats (250-300 g) were anesthetized with Inactin® (120 mg/kg). After deep anesthesia was assured, the rats were cannulated in the trachea with polyethylene (PE) tubing (PE 240), jugular vein, femoral artery, bladder (PE 50 for previous 3 cannulations), and left ureter (stretched PE 50). Once cannulation was completed, a 2 cm flank incision above the left kidney was performed and the renal pelvis and vascular bundle were exposed. […]
Just prior to clamping, EX-2 (50 or 500 μg/kg), ketorolac (KETO, 1 mg/kg), or vehicle was administered intravenously (iv) After 1 hr of clamping (ischemia), the clamp was gently removed with care taken to avoid damaging either the renal artery or nerves. […] After 60 min of reperfusion, glomerular filtration rate (GFR), renal plasma flow (RPF) and renal vascular resistance (RVR) were assessed in two 30 min collection periods. […] Contralateral renal function was utilized to determine the stability of the rat's renal function during the measured period.

Balb/c mice [5] = experiment: Lipopolysaccharide-induced lethality (IP dosing); details: 11 × 300 μg/mouse IP (3.3 mg total); 0.6 mg LPS
Protocol: These experiments were performed based on information reported by Rivier et al., Endocrinology 125:2800-2805 (1989), which is incorporated herein by reference. Adult female Balb/c mice were provided food and water ad libitum. Mice were injected IP every four hr for 40 hr with 30 to 300 μg EX-2, EX-3 or EX-4 in 0.2 ml saline (treated group) or with 0.2 ml saline, alone (control group) (10 mice per group). Immediately following the first injection, 0.6 mg LPS endotoxin in 0.2 ml saline was administered to each mouse. Following LPS injection, EX-2 or saline was administered to the treated mice or the control mice, respectively, every 4 hr for 36 hr.

Substance: Ac-Nle-Gln-His-(D)Phe-Arg-(D)Trp-Gly-NH2 [EX-2]
- % Attenuation of suspension-induced decrease: Soleus Citrate Synthase (Sprague-Dawley rats [1]; day 14): 50%
- % Attenuation of suspension-induced decrease: Tibia Bone Density (Sprague-Dawley rats [1]; day 14): 50%
- % Attenuation of suspension-induced decrease: Exercise Time (Sprague-Dawley rats [1]; treadmill day 10): 44%
- % Attenuation of suspension-induced decrease: Maximal VO2 (Sprague-Dawley rats [1]; treadmill day 10): 80%
- % Reduction of induced increase in Albumin (mg/day), Glomerulonephritis (Sprague-Dawley rats [2]): 62%
- Reduction in arachidonic acid-induced Ear Swelling (Balb/c mice [3]): 72%
- Reduction in IL-6 levels (IL-6): 60%
- GFR (glomerular filtration rate) (Sprague-Dawley rats [4]; 1 hr clamp, after 60 min reperfusion, I/R + PBS 0.2 ± 0.1): 0.5 ± 0.1 ml/mm
- RPF (renal plasma flow) (Sprague-Dawley rats [4]; I/R + PBS 0.8 ± 0.2): 2.3 ± 0.3 ml/mm
- Inhibition of LPS-induced Lethality (increase in survival vs control) (Balb/c mice [5]): 83%
